# US20260283968A1, “METHOD FOR PRODUCING MILK LIKE PRODUCTS” (SOCIÉTÉ DES PRODUITS NESTLÉ S.A., priority 2023, published 2026)
# B1: BMP4: bone morphogenetic protein 4, differentiation factor added to the culture medium (protein, UniProt P12644 293-408, looked up)
# Bone morphogenetic protein 4: SPKHHSQRARKKNKNCRRHSLYVDFSDVGWNDWIVAPPGYQAFYCHGDCPFPLADHLNSTNHAIVQTLVNSVNSSIPKACCVPTELSAISMLYLDEYDKVVLKNYQEMVVEGCGCR
# Legend:
# [1] = test system: iPS-derived mammary-gland cells; assay: LC-MS/MS targeted proteomic analysis of osteopontin secretion in culture media; assay type: cell-based, human; conditions: BMP4 and RA added to the differentiation culture medium
# [2] = test system: iPSCs derived mammary gland organoids; assay: Flow cytometry quantification of mammary gland progenitor markers during 3D differentiation of iPSCs; assay type: cell-based, human; conditions: 20 ng/mL BMP4, 1 μM RA, single or combination, 42 days or 31 days protocol, vs control condition
# Description: In order to generate milk bioactives that closely resemble those found in human breast milk, different methods using bone morphogenetic protein 4 (BMP4) and retinoic acid (RA) in 42 days and 31 days as a shortened time-course protocol were established in a 3D-platform using iPSCs derived mammary gland organoids as a biomimetic model of the human mammary gland (FIG. 6).
Molecule,expression and secretion of milk-specific bioactive marker osteopontin (OPN) [1],"expression of mammary gland progenitor markers EpCAM (CD326), CD49f, MUC1 (CD227), GATA3 [2]"
"CC1=C(/C=C/C(C)=C/C=C/C(C)=C/C(=O)O)C(C)(C)CCC1 [RA, retinoic acid]",improve expression and secretion levels of milk-specific bioactive markers,can induce the expression of mammary gland progenitor markers
B1,improve expression and secretion levels of milk-specific bioactive markers,can induce the expression of mammary gland progenitor markers
